# Assay results published in patent US10124033B2, “Peptides and methods of use” (BAXALTA INCORPORATED, priority 2014, dated 2018).
# Residues, ends and D or L forms follow the SMILES beside them.
# Columns and labels:
# [1] = biological target: T1, Protein S (Homo sapiens, UniProt P07225); test: competition (IC50) ELISA with biotinylated tracer peptide JBS0684; type: binding; settings: competition ELISA, tracer JBS0684; re-synthesized peptides
# T1 sequence (P07225 41-676 limits assumed): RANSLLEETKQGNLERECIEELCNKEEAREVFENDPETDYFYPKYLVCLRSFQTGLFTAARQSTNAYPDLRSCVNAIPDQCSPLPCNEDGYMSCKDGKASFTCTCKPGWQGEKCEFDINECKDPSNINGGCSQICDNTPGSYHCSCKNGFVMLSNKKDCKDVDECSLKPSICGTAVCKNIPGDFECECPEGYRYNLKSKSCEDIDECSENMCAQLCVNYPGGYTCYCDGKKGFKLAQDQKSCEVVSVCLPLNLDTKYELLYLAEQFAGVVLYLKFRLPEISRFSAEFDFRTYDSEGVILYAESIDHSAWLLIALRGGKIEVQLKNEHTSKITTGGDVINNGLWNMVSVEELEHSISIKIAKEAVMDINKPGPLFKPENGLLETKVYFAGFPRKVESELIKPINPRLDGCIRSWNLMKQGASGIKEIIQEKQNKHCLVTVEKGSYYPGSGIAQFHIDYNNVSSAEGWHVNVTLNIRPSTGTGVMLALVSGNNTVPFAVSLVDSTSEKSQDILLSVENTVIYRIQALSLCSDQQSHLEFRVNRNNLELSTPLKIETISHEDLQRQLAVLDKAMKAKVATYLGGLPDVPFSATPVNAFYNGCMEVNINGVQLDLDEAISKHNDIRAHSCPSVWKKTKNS
# Procedure: The new peptide candidates were synthesized (purity >60%) and screened for affinity in a competitive binding assay (ELISA IC50) and activity in a thrombin generation assay (CAT). The competition (IC50) ELISA was performed using biotinylated tracer peptide JBS0684 to compete for Protein S-binding with candidate peptides. Peptides that compete with the tracer bind the same region of Protein S as the tracer (and each other). Ninety-six well PolySorp plates (Nunc) were coated with 3 μg/mL Protein S in coating buffer (15 mM Na2CO3, 35 mM NaHCO3, pH 9.6) over night. Plates were washed three times with wash buffer (HNaT: 175 mM NaCl, 25 mM HEPES, 5 mM CaCl2, 0.1% Tween 80, pH 7.35), and blocked with 100 μl 2% yeast extract in HNaT for at least 1 hour. Plates were then washed three times with HNaT. JBS0684 was applied at a concentration corresponding to the EC90 value determined in the binding ELISA. A competitor stock solution of peptide (10 mM) was diluted 1/33.3 in HNaT without HSA, and a serial ⅓ dilution was prepared with HNaT with 3% DMSO. The dilution was further diluted with the biotinylated tracer peptide in a ratio of 1:6 (20 μl competitor dilution and 100 μl tracer peptide). The mixture of competitor and tracer peptide was applied to the Protein S-coated microtiter plate and incubated for 1.5 hours. The plates were washed three times with HNaT. Peptide-Protein S binding was detected by applying HRP-conjugated streptavidin to the microtiter plate, incubating the mixture for one hour, washing the plate three times with HNaT, applying TMB (3,3′5,5′-Tetramethylbenzidin), and detecting the subsequent chromogenic conversion of TMB by HRP. IC50 measurements of peptides are provided herein (see, e.g., Table 3).
# [2] = biological target: T2, Protein S/APC cofactor activity (Homo sapiens, UniProt P07225); test: CAT assay: Protein S/APC-dependent thrombin generation in FVIII-inhibited plasma; type: biochemical; settings: Protein S-depleted plasma supplemented with APC and Protein S, FVIII-inhibited
# T2 construct: host or cells: plasma
# T2 sequence (P07225 41-676 limits assumed): T1 sequence (P07225 41-676 limits assumed)
# Procedure: Peptides also were tested for improvement of Protein S/APC-dependent thrombin generation in hemophilic plasma using a CAT assay. Protein S enhances the anticoagulation of APC in plasma. The CAT assay quantifies the effect of Protein S on APC-mediated thrombin generation initiated via the extrinsic coagulation pathway (Nicolaes, Blood Coagul. Fibrinolysis, 8:28 (1997)). APC (35 nM) and Protein S (25 nM) was added to Protein 5-depleted plasma, and plasma samples were incubated with high titer heat inactivated anti-human FVIII plasma raised in goat (4490 BU/ml; Baxter BioScience, Vienna, Austria; 50 BU/ml final plasma concentration). Thrombin formation in plasma was followed by calibrated automated thrombography (CAT) in a Fluoroskan Ascent® reader (Thermo Labsystems, Helsinki, Finland) and quantified via the thrombin peak-height. Thrombin generation was determined at high tissue factor (TF) concentration in the absence and in the presence of APC at a concentration that reduces the peak height to ˜20%. The inhibitory effect of peptides described herein on the APC cofactor activity of Protein S (PS) in plasma was measured in FVIII-inhibited pooled normal plasma supplemented with APC. Complete (100%) Protein S/APC inhibition is the height of the thrombin peak without addition of APC. Lack of (0%) PS/APC inhibition correlates to the thrombin peak-height value with a certain amount of APC. Peptides were ranked by their normalized values in comparison to the mean of wild-type controls including SD at two defined peptide concentrations (EC50 and EC90).
# Exemplary conditions for the CAT assay are as follows. Protein S-depleted plasma was supplemented with 35 nM APC and […]. Stock APC was diluted with 10 pM TF and 15 μM PL. Lyophilized peptides were dissolved in 100% DMSO to a 5 mM stock concentration and further diluted with HNABSA5-buffer+0.1% Tween80. […] In a 96 well Immulon 2HB (transparent), U-bottom (ThermoElectron) plate was mixed 80 μl plasma (+CTI+Z994-5), 10 μl peptide dilution, and 10 μl APC-TF-PL-MIX or Calibrator. Thrombin generation was initiated by dispensing 20 μL of FluCa reagent containing fluorogenic substrate and HEPES-buffered CaCl2 (100 mM) into each well. Fluorescence intensity was recorded at 37° C. using the Fluoroskan Ascent® reader (filters 390 nm excitation and 460 nm emission). The parameters of the resulting thrombin generation curves were calculated using the Thrombinoscope™ software (Thrombinoscope) and thrombin calibrator to correct for inner filter and substrate consumption effects (Hemker, Pathophysiol Haemost Thromb, 33: 415 (2003)).
IC50 [1] [nM],EC50 [2] [nM],Compound
3.6,19,CC(=O)N[C@H](C(=O)NCC(=O)N[C@@H](Cc1c[nH]cn1)C(=O)N[C@H](C(=O)N[C@@H](CO)C(=O)N[C@@H](C)C(=O)NCC(=O)N[C@@H](Cc1c[nH]c2ccccc12)C(=O)N[C@@H](Cc1ccc(O)cc1)C(=O)N[C@@H](CC(=O)O)C(=O)N[C@@H](Cc1ccc(O)cc1)C(=O)N[C@@H](CC(N)=O)C(=O)N[C@@H](C)C(=O)N[C@@H](CC(=O)O)C(=O)N[C@@H](Cc1c[nH]cn1)C(=O)N[C@@H](Cc1ccc(O)cc1)C(=O)N[C@@H](CCCNC(=N)N)C(=O)N[C@@H](CCC(=O)O)C(=O)N[C@@H](Cc1ccccc1)C(=O)N[C@H](C(N)=O)[C@@H](C)O)C(C)C)[C@@H](C)O [JBS2526] (Ac-TGHVSAGWYDYNADHYREFT-NH2)
6.8,30,CC(=O)N[C@H](C(=O)NCC(=O)N[C@@H](Cc1c[nH]cn1)C(=O)N[C@H](C(=O)N[C@@H](CO)C(=O)N[C@@H](C)C(=O)NCC(=O)N[C@@H](Cc1c[nH]c2ccccc12)C(=O)N[C@@H](Cc1ccc(O)cc1)C(=O)N[C@@H](CC(=O)O)C(=O)N[C@@H](Cc1ccc(O)cc1)C(=O)N[C@@H](CC(N)=O)C(=O)N[C@@H](Cc1ccccc1)C(=O)N[C@@H](CC(=O)O)C(=O)N[C@@H](CC(=O)O)C(=O)N[C@@H](Cc1ccc(O)cc1)C(=O)N[C@@H](CCCNC(=N)N)C(=O)N[C@@H](CCC(=O)O)C(=O)N[C@@H](Cc1ccccc1)C(=O)N[C@H](C(N)=O)[C@@H](C)O)C(C)C)[C@@H](C)O [JBS2546] (Ac-TGHVSAGWYDYNFDDYREFT-NH2)
5.5,24,CC(=O)NCC(=O)NCC(=O)N[C@@H](Cc1c[nH]cn1)C(=O)N[C@H](C(=O)N[C@@H](CO)C(=O)N[C@@H](C)C(=O)NCC(=O)N[C@@H](Cc1c[nH]c2ccccc12)C(=O)N[C@@H](Cc1ccc(O)cc1)C(=O)N[C@@H](CC(=O)O)C(=O)N[C@@H](Cc1ccc(O)cc1)C(=O)N[C@@H](CC(N)=O)C(=O)N[C@@H](Cc1ccccc1)C(=O)N[C@@H](CC(=O)O)C(=O)N[C@@H](Cc1c[nH]cn1)C(=O)N[C@@H](Cc1ccc(O)cc1)C(=O)N[C@@H](CCCNC(=N)N)C(=O)N[C@@H](CCC(=O)O)C(=O)N[C@@H](Cc1ccccc1)C(=O)N[C@H](C(N)=O)[C@@H](C)O)C(C)C [JBS2552] (Ac-GGHVSAGWYDYNFDHYREFT-NH2)
2.7,9,CC(=O)N[C@H](C(=O)NCC(=O)N[C@@H](Cc1c[nH]cn1)C(=O)N[C@H](C(=O)N[C@@H](CO)C(=O)N[C@@H](C)C(=O)NCC(=O)N[C@@H](Cc1c[nH]c2ccccc12)C(=O)N[C@@H](Cc1ccc(O)cc1)C(=O)N[C@@H](CC(=O)O)C(=O)N[C@@H](Cc1ccc(O)cc1)C(=O)N[C@@H](CC(N)=O)C(=O)N[C@@H](Cc1ccccc1)C(=O)N[C@@H](CC(=O)O)C(=O)N[C@@H](CC(C)C)C(=O)N[C@@H](Cc1ccc(O)cc1)C(=O)N[C@@H](CCCNC(=N)N)C(=O)N[C@@H](CCC(=O)O)C(=O)N[C@@H](Cc1ccccc1)C(=O)N[C@H](C(N)=O)[C@@H](C)O)C(C)C)[C@@H](C)O [JBS2584] (Ac-TGHVSAGWYDYNFDLYREFT-NH2)
2.6,19,CC(=O)N[C@H](C(=O)NCC(=O)N[C@@H](Cc1c[nH]cn1)C(=O)N[C@H](C(=O)N[C@@H](CO)C(=O)N[C@@H](C)C(=O)NCC(=O)N[C@@H](Cc1c[nH]c2ccccc12)C(=O)N[C@@H](Cc1ccc(O)cc1)C(=O)N[C@@H](CC(=O)O)C(=O)N[C@@H](Cc1ccc(O)cc1)C(=O)N[C@@H](CC(N)=O)C(=O)N[C@@H](Cc1ccccc1)C(=O)N[C@@H](CC(=O)O)C(=O)N[C@@H](Cc1c[nH]cn1)C(=O)N[C@@H](Cc1ccc(O)cc1)C(=O)N[C@@H](CC(C)C)C(=O)N[C@@H](CCC(=O)O)C(=O)N[C@@H](Cc1ccccc1)C(=O)N[C@H](C(N)=O)[C@@H](C)O)C(C)C)[C@@H](C)O [JBS2586] (Ac-TGHVSAGWYDYNFDHYLEFT-NH2)
3.4,30,CC(=O)N[C@H](C(=O)NCC(=O)N[C@@H](Cc1c[nH]cn1)C(=O)N[C@H](C(=O)N[C@@H](CO)C(=O)N[C@@H](C)C(=O)NCC(=O)N[C@@H](Cc1c[nH]c2ccccc12)C(=O)N[C@@H](Cc1ccc(O)cc1)C(=O)N[C@@H](CC(=O)O)C(=O)N[C@@H](Cc1ccc(O)cc1)C(=O)N[C@@H](CC(N)=O)C(=O)N[C@@H](CCCCN)C(=O)N[C@@H](CC(=O)O)C(=O)N[C@@H](Cc1c[nH]cn1)C(=O)N[C@@H](Cc1ccc(O)cc1)C(=O)N[C@@H](CCCNC(=N)N)C(=O)N[C@@H](CCC(=O)O)C(=O)N[C@@H](Cc1ccccc1)C(=O)N[C@H](C(N)=O)[C@@H](C)O)C(C)C)[C@@H](C)O [JBS2602] (Ac-TGHVSAGWYDYNKDHYREFT-NH2)
4.1,19,CC(=O)N[C@H](C(=O)NCC(=O)N[C@@H](Cc1c[nH]cn1)C(=O)N[C@H](C(=O)N[C@@H](CO)C(=O)N[C@@H](C)C(=O)NCC(=O)N[C@@H](Cc1c[nH]c2ccccc12)C(=O)N[C@@H](Cc1ccc(O)cc1)C(=O)N[C@@H](CC(=O)O)C(=O)N[C@@H](Cc1ccc(O)cc1)C(=O)N[C@@H](CC(N)=O)C(=O)N[C@@H](Cc1ccccc1)C(=O)N[C@@H](CC(=O)O)C(=O)N[C@@H](CCCCN)C(=O)N[C@@H](Cc1ccc(O)cc1)C(=O)N[C@@H](CCCNC(=N)N)C(=O)N[C@@H](CCC(=O)O)C(=O)N[C@@H](Cc1ccccc1)C(=O)N[C@H](C(N)=O)[C@@H](C)O)C(C)C)[C@@H](C)O [JBS2604] (Ac-TGHVSAGWYDYNFDKYREFT-NH2)
